Measurements: patent US7375111B2, “Compositions for affecting weight loss” (priority 2003, dated 2008)
Several values for one entry are separate records, joined by “and”; a condition that tells them apart may be missing. Identical values can stand only once.

Columns and labels:
C57/B16J mice = test: Dose-response experiments: cumulative food intake after intraperitoneal injection in fasted mice; conditions: food removed the day before
Protocol: Cumulative food intake±SEM was calculated and analyzed using Prizm. […] From the curve, the EC50 at each time point for each drug was determined.

POMC neurons [1] = test: Electrophysiology: cell-attached recordings of action potential frequency of POMC-EGFP neurons in hypothalamic (ARC) slices; conditions: applied to the bath for 3 min
Protocol: Under ultraviolet (450-480 nm) excitation, POMC neurons were clearly distinguished from adjacent, non-fluorescent neurons visualized under infrared optics.
200 μm thick coronal slices were cut from the ARC of four-week old male POMC-EGFP mice. […] Recordings were made in Krebs at 35° C. Slices were visualized on an Axioskop FS2 plus (Zeiss) through standard infra red optics and using epifluorescence through a FITC (longpass) filter set. […] Cell-attached recordings were made from fluorescent neurons using an Axopatch 200B amplifier (Axon Instruments) and Clampex 8 (Axon Instruments). Action potentials frequencies were determined using an event detection program (Mini Analysis; Synaptosoft Inc., Decatur, Ga.). Drugs were applied to the bath for 3 min.
Data were analyzed by determining the average firing rate for 500 sec prior to drug addition, and analyzing treatments relative to this frequency (that is, firing rates were normalized to the pre-treatment frequency).

[2] = in vivo; cited from earlier work
POMC neurons [3] = conditions: Heisler et al., Science 297(5581):609-11 (2002); cited from earlier work

Compound: CC(NC(C)(C)C)C(=O)c1cccc(Cl)c1 (centres unmarked) [Bupropion, bupropion]
- Cumulative food intake expressed as a proportion of the food intake in saline treated animals, MEAN (C57/B16J mice; Hour 1 post-injection): 0.32
- Cumulative food intake expressed as a proportion of the food intake in saline treated animals, MEAN (C57/B16J mice; Hour 2 post-injection): 0.64
- Cumulative food intake expressed as a proportion of the food intake in saline treated animals, MEAN (C57/B16J mice; Hour 4 post-injection): 0.97
- Cumulative food intake expressed as a proportion of the food intake in saline treated animals, MEAN (C57/B16J mice; Hour 8 post-injection): 0.96
- Cumulative food intake expressed as a proportion of the food intake in saline treated animals, MEAN (C57/B16J mice; headed Hour 8 a second time): 0.99

Compound: COCCCC/C(=N\OCCN)c1ccc(C(F)(F)F)cc1 [Fluvoxamine, fluvoxamine]
- Cumulative food intake expressed as a proportion of the food intake in saline treated animals, MEAN (C57/B16J mice; Hour 1 post-injection): 0.77
- Cumulative food intake expressed as a proportion of the food intake in saline treated animals, MEAN (C57/B16J mice; Hour 2 post-injection): 0.85
- Cumulative food intake expressed as a proportion of the food intake in saline treated animals, MEAN (C57/B16J mice; Hour 4 post-injection): 0.95
- Cumulative food intake expressed as a proportion of the food intake in saline treated animals, MEAN (C57/B16J mice; Hour 8 post-injection): 0.91
- Cumulative food intake expressed as a proportion of the food intake in saline treated animals, MEAN (C57/B16J mice; headed Hour 8 a second time): 0.92

Compound: Cc1c(C(=O)NN2CCCCC2)nn(-c2ccc(Cl)cc2Cl)c1-c1ccc(I)cc1 [AM 251, N-(piperidin-1-yl)-1-(2,4-dichlorophenyl)-5-(4-iodophenyl)-4-methyl-1H-pyrazole-3-carboxamide]
- Cumulative food intake expressed as a proportion of the food intake in saline treated animals, MEAN (C57/B16J mice; Hour 1 post-injection): 0.97
- Cumulative food intake expressed as a proportion of the food intake in saline treated animals, MEAN (C57/B16J mice; Hour 2 post-injection): 0.85
- Cumulative food intake expressed as a proportion of the food intake in saline treated animals, MEAN (C57/B16J mice; Hour 4 post-injection): 0.88
- Cumulative food intake expressed as a proportion of the food intake in saline treated animals, MEAN (C57/B16J mice; Hour 8 post-injection): 0.90
- Cumulative food intake expressed as a proportion of the food intake in saline treated animals, MEAN (C57/B16J mice; headed Hour 8 a second time): 0.99

Compound: C=C1CC[C@@]2(O)[C@H]3Cc4ccc(O)c5c4[C@@]2(CCN3CC2CC2)[C@H]1O5 [Nalmefene, nalmefene]
- Cumulative food intake expressed as a proportion of the food intake in saline treated animals, MEAN (C57/B16J mice; Hour 1 post-injection): 0.0083
- Cumulative food intake expressed as a proportion of the food intake in saline treated animals, MEAN (C57/B16J mice; Hour 2 post-injection): 0.11
- Cumulative food intake expressed as a proportion of the food intake in saline treated animals, MEAN (C57/B16J mice; Hour 4 post-injection): 0.57
- Cumulative food intake expressed as a proportion of the food intake in saline treated animals, MEAN (C57/B16J mice; Hour 8 post-injection): 0.81
- Cumulative food intake expressed as a proportion of the food intake in saline treated animals, MEAN (C57/B16J mice; headed Hour 8 a second time): 0.98

Compound: NCCc1ccc(O)c(O)c1 [Dopamine]
- Mean effect of the drug alone on firing rate, normalized to the pre-treatment frequency (POMC neurons [1]): 11X (n = 9)

Compound: CNCCC(Oc1ccc(C(F)(F)F)cc1)c1ccccc1 (centres unmarked) [Fluoxetine, fluoxetine]
- Physiological half life [2]: about 9 hours
- Cumulative food intake expressed as a proportion of the food intake in saline treated animals, MEAN (C57/B16J mice; Hour 1 post-injection): 0.36
- Cumulative food intake expressed as a proportion of the food intake in saline treated animals, MEAN (C57/B16J mice; Hour 2 post-injection): 0.57
- Cumulative food intake expressed as a proportion of the food intake in saline treated animals, MEAN (C57/B16J mice; Hour 4 post-injection): 0.68
- Cumulative food intake expressed as a proportion of the food intake in saline treated animals, MEAN (C57/B16J mice; Hour 8 post-injection): 0.76
- Cumulative food intake expressed as a proportion of the food intake in saline treated animals, MEAN (C57/B16J mice; headed Hour 8 a second time): 1.05
- Mean effect of the drug alone on firing rate, normalized to the pre-treatment frequency (POMC neurons [1]): 3X (n = 1)

Compound: O=C1CC[C@@]2(O)[C@H]3Cc4ccc(O)c5c4[C@@]2(CCN3CC2CC2)[C@H]1O5 [Naltrexone, naltrexone]
- Cumulative food intake expressed as a proportion of the food intake in saline treated animals, MEAN (C57/B16J mice; Hour 1 post-injection): 0.41 and 0.30
- Cumulative food intake expressed as a proportion of the food intake in saline treated animals, MEAN (C57/B16J mice; Hour 2 post-injection): 0.77 and 0.56
- Cumulative food intake expressed as a proportion of the food intake in saline treated animals, MEAN (C57/B16J mice; Hour 4 post-injection): 0.99 and 0.83
- Cumulative food intake expressed as a proportion of the food intake in saline treated animals, MEAN (C57/B16J mice; Hour 8 post-injection): 1.1 and 0.98
- Cumulative food intake expressed as a proportion of the food intake in saline treated animals, MEAN (C57/B16J mice; headed Hour 8 a second time): 0.98 and 1.01

Compound: CCNC(C)Cc1cccc(C(F)(F)F)c1 (centres unmarked) [Fenfluramine, fenfluramine]
- Effect of fenfluramine alone (POMC neurons [3]): 200%
- Mean effect of the drug alone on firing rate, normalized to the pre-treatment frequency (POMC neurons [1]): 2X increase (n = 6)
